Test results as given in US20030087237A1, “Low-temperature cycle extension of DNA with high polymerization specificity” (priority 2001, published 2003).
“Also recorded” adds a separate entry of the source. Where two headings read alike, the source gives them in different places.

How the values were obtained:
Bst-II DNA polymerase [1] = target: T1, Bst-II DNA polymerase (Geobacillus stearothermophilus, UniProt P52026, A297E/A304V/A338V/A377V/A406D/A433V/A505S/D300E/D309E/D325E/D402N/D540E/D696E/D751E/E459Q/E464D/E476K/E631P/E632L/E667D/F710Y/G298E/G324E/G362A/G483A/G678D/H329D/H417K/H573N/H596R/H691Q/K356Q/K494N/L346M/L461F/L630T/N487E/P355S/P441Q/P480A/Q479H/Q512R/R341H/R467N/R472Q/R516Q/R676Q/R816K/R819Q/R846E/S306V/S373A/S812A/T369S/T436S/T508A/T536V/V307I/V323M/V391A/V410I/V437L/V514I/V537I/V598D/V619A/V692L/V813A); type: biochemical, Bacillus stearothermophilus; settings: for effect on 5′-3′ polymerization activity of the polymerase: 65° C.
T1 construct: made in house
T1 sequence (P52026 other isoform, or with tags, fused parts or gaps with the stated changes): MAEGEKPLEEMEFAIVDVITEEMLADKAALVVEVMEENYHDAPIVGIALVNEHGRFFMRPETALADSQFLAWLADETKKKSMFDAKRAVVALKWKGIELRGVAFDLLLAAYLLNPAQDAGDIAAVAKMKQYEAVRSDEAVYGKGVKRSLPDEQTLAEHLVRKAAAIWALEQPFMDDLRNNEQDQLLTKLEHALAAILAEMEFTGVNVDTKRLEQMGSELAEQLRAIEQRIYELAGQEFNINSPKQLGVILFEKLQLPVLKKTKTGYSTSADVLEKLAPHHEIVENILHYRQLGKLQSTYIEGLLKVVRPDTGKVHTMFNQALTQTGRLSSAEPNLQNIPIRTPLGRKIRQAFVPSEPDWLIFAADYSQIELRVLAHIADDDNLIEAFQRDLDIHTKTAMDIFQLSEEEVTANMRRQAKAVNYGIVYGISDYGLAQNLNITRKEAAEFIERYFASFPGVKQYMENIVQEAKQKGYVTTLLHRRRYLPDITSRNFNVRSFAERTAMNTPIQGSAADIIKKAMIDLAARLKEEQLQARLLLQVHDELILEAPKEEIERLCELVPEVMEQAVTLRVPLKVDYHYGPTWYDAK
Experimental: The remaining activity of Bst-II DNA polymerase (produced according to U.S. Pat. No. 6,165,765) in the presence of different concentrations of Glycerol was determined as follows:
(a) In a series of numbered 0.5 ml microcentrifuge tubes were added the following:
The mixtures above were firstly evaporated by Speed-Vacuum, then varying final concentrations of glycerol in each reaction mixture were achieved by adding an appropriate amount of a glycerol stock solution to the above microcentrifuge tubes as indicated below.
(b) All these tubes were incubated at 65° C. for 30 minutes. Then each of the reaction mixtures was pipetted onto a DE-81 filter. After all of the fluid has evaporated, the amount of radioactivity on each filter was measured with scintillation and recorded as X1. Thereafter, the filters were washed three times with 0.3 M Na2HPO4 solution at room temperature, 10 minutes each times, dried at room temperature and then the amount of radioactivity on each filter was measured again and recorded as X2. Incorporation ratio=X2/X1. [formula]

Bst-II DNA polymerase [2] = target: T1, Bst-II DNA polymerase; assay: Low-temperature cycle primer extension with Bst-II at different glycerol concentrations (agarose gel); type: biochemical, Bacillus stearothermophilus
Experimental: Bst-II DNA polymerase was used for the study. […]
(§1) The reaction products were run on a 1% agarose gel for electrophoresis and stained by ethidium bromide.
Four different sets of templates and primers were selected representing varying lengths of the DNA segments to be amplified:
The low temperature cycle extension was carried out as follows:
(a) To a 0.2 ml microcentrifuge tube were added.
(b) The mixture above was firstly evaporated by Speed-Vacuum, then the following were added to each microcentrifuge tube containing the evaporated reagents with different sets of template and primers to achieve a final concentration of 35% glycerol and 15% glycerol in the reaction mixture, respectively.
(c) All the microcentrifuge tubes with the reaction mixture were subjected to low temperature cycling as follows:
The reaction products were run on a 1% agarose gel for electrophoresis and stained by ethidium bromide. The reaction products from the mixture containing 35% glycerol were loaded in lane 1, and the reaction products from the mixture containing 15% glycerol were loaded in lane 2.

rice genome BAC B414f7 = assay: Low-temperature cycle extension of 17 mer and 30 mer primers with different DNA polymerases (agarose gel); type: biochemical; settings: Bst system, 15% glycerol, 70° C./37° C./50° C., 35 cycles
Experimental: The polymerases used were Bst-I (wild type produced according to U.S. Pat. No. 5,834,254), Bst-II, and Bca (TaKaRa Co.). The Klenow fragment (Sigma Chemical Co.) was used as a thermolabile DNA polymerase for comparison (Iakobashvili and Lapidot).
The template used was rice genome BAC B414f7.
The two pairs of primers used were: […]
The following reaction system (referred to hereafter as the Bst system) was used.
(a) In a 0.2 ml microcentrifuge tube were added:
(b) The microcentrifuge tubes were subjected to the following temperature cycling.
as §1
In addition, the method of using a reaction mixture containing 4.5 M proline and 17% glycerol in Tris-HCl buffer as recommended by Iakobashvili and Lapidot was also adopted for the reactions with Klenow fragment as the DNA polymerase (hereafter referred to as the Iakobashvili and Lapidot system). The reaction products were also run parallel to those obtained with the Bst system, and illustrated as follows in FIG. 4.

[3] = higher concentrations (greater than about 35%)
[4] = low concentration, not exceeding / up to about 20% (v/v)

Molecule: OCC(O)CO [glycerol]
- loss of original polymerization activity (Bst-II DNA polymerase [1]; glycerol 40% (v/v)): ⅔
- effect on 5′-3′ polymerization activity of the polymerase (Bst-II DNA polymerase [1]; [3]): detrimental inhibitory effect; also recorded: invariably suppressed this enzymatic activity
- effect on 5′-3′ polymerization activity of the polymerase (Bst-II DNA polymerase [1]; [4]): increased the enzymatic activity; also recorded: increase the sequence-specific DNA polymerization activity; also recorded: increased the 5′-3′ polymerization activity
- amplification products on gel (Bst-II DNA polymerase [2]; 15% glycerol, target products 250 bp to 2 Kb): specific amplification products
- amplification products on gel (Bst-II DNA polymerase [2]; 35% glycerol, target product 1 Kb and 2 Kb): both specific and non-specific amplification products
- amplification products on gel (Bst-II DNA polymerase [2]; 35% glycerol, target product 250 bp or 400 bp): no amplification products produced at all
- amplification products on gel (Bst-II DNA polymerase [2]; 40% glycerol, template pBluescript(+), low or high template concentration, 70° C./45° C., 35 cycles): non-specific amplification products of varying sizes

Molecule: OCCO [ethylene glycol]
- effect on 5′-3′ polymerization activity of the polymerase (Bst-II DNA polymerase [1]; [3]): detrimental inhibitory effect
- effect on 5′-3′ polymerization activity of the polymerase (Bst-II DNA polymerase [1]; [4]): increase the sequence-specific DNA polymerization activity

B1: Bst-I: wild type, natural form of Bacillus stearothermophilus DNA polymerase (protein, UniProt P52026 1-876, looked up)
DNA polymerase I: MKNKLVLIDGNSVAYRAFFALPLLHNDKGIHTNAVYGFTMMLNKILAEEQPTHILVAFDAGKTTFRHETFQDYKGGRQQTPPELSEQFPLLRELLKAYRIPAYELDHYEADDIIGTMAARAEREGFAVKVISGDRDLTQLASPQVTVEITKKGITDIESYTPETVVEKYGLTPEQIVDLKGLMGDKSDNIPGVPGIGEKTAVKLLKQFGTVENVLASIDEIKGEKLKENLRQYRDLALLSKQLAAICRDAPVELTLDDIVYKGEDREKVVALFQELGFQSFLDKMAVQTDEGEKPLAGMDFAIADSVTDEMLADKAALVVEVVGDNYHHAPIVGIALANERGRFFLRPETALADPKFLAWLGDETKKKTMFDSKRAAVALKWKGIELRGVVFDLLLAAYLLDPAQAAGDVAAVAKMHQYEAVRSDEAVYGKGAKRTVPDEPTLAEHLVRKAAAIWALEEPLMDELRRNEQDRLLTELEQPLAGILANMEFTGVKVDTKRLEQMGAELTEQLQAVERRIYELAGQEFNINSPKQLGTVLFDKLQLPVLKKTKTGYSTSADVLEKLAPHHEIVEHILHYRQLGKLQSTYIEGLLKVVHPVTGKVHTMFNQALTQTGRLSSVEPNLQNIPIRLEEGRKIRQAFVPSEPDWLIFAADYSQIELRVLAHIAEDDNLIEAFRRGLDIHTKTAMDIFHVSEEDVTANMRRQAKAVNFGIVYGISDYGLAQNLNITRKEAAEFIERYFASFPGVKQYMDNIVQEAKQKGYVTTLLHRRRYLPDITSRNFNVRSFAERTAMNTPIQGSAADIIKKAMIDLSVRLREERLQARLLLQVHDELILEAPKEEIERLCRLVPEVMEQAVTLRVPLKVDYHYGPTWYDAK
- amplification product from 17 mer and 30 mer primer extension (rice genome BAC B414f7): generated specific amplification products
